Assay results from patent US9951373B2, “Oplophorus-derived luciferases, novel coelenterazine substrates, and methods of use” (Promega Corporation, priority 2010, dated 2018).
Like-named read-outs stand apart in the source and are kept apart here.

Columns and labels:
[1] = target: T1, OgLuc variant 9B8 (Oplophorus gracilirostris, UniProt Q9GV45, A31E/A60K/A81I/F95Y/I117V/L99Q/M102K/N193R/P142E/Q151K/Q38R/Q45L/V71I/Y165I); assay: LOPAC library inhibition screen; format: biochemical; details: preliminary LOPAC screen, 9B8, 20 μM substrate
T1 construct: The IV-based variants were generated in a pF4Ag vector background without HT7; made in house; host or cells: E. coli (crude lysate)
Protocol: To determine the susceptibility of the OgLuc variants to off-target interactions, the activity of the 9B8 and L27V variants was screened against a LOPAC (library of pharmacologically active compounds) library. A LOPAC 1280 library (Sigma) was prepared by diluting the compounds to 1 mM in DMSO. On the day of the assay, the compounds were diluted to 20 μM in 1×PBS, and 10 μL transferred to a 96-well, white plate. To each well, 10 μL of purified 9B8, L27V or firefly luciferase (Luc2) enzyme diluted 10^−4 in Glo Lysis Buffer (Promega Corp.) was added and incubated at room temperature for 2 min. […] For assaying firefly luciferase, the BRIGHT-GLO™ Assay reagent (Promega Corp.) was used according to the manufacturer's protocol. As a negative control, 8 wells of each plate contained 1×PBS+2% glycerol. As a positive control, 8 wells of each plate contained 2 mM Suramin in 2% DMSO or 2 mM luciferase inhibitor 1 in 2% DMSO (Calbiochem).

[2] = target: T2, red click beetle luciferase and OgLuc variant 9B8 opt (Oplophorus gracilirostris, UniProt Q9GV45, A31E/A60K/A81I/F95Y/I117V/L99Q/M102K/N193R/P142E/Q151K/Q38R/Q45L/V71I/Y165I); assay: Multiplexing with red click beetle luciferase, modified DUAL-GLO assay; format: biochemical; details: 9B8 opt, STOP&GLO Reagent with 20 μM of the substrate
T2 construct: The IV-based variants were generated in a pF4Ag vector background without HT7; made in house; host or cells: E. coli (crude lysate, diluted 1000-fold)
Protocol: (§1) A. Lysates of E. coli expressing the variant 9B8 opt were prepared as previously described in Example 27 and diluted 1000-fold in DMEM without phenol red+0.1% PRIONEX®. Luminescence from a sample containing 6.3 μg/mL of purified red click beetle luciferase and E. coli lysate expressing the variant 9B8 opt was detected using a modified DUAL-GLO® Luciferase Assay System (Promega Corp.). DUAL-GLO® STOP&GLO® Reagent containing 20 μM coelenterazine-h and DUAL-GLO® STOP&GLO® Reagent containing 20 μM PBI 3939 were used, according to the manufacturer's protocol, to detect the red click beetle luciferase and OgLuc variant 9B8 luciferase from a single sample. Three replicates were performed.
(§2) Luminescence was detected on a Turner MODULUS™ luminometer. […] The standard deviation (“+/−”) and coefficient of variance (“CV”) are also shown. A “no coelenterazine” control was performed to illustrate the amount of quenching of the red click beetle signal by the DUAL-GLO® STOP&GLO® Reagent of the DUAL-GLO® Luciferase Assay System in the absence of coelenterazine. The “no coelenterazine” control yielded a 349-fold quench.

[3] = test system: red click beetle luciferase and OgLuc variant 9B8 opt; assay: as above; format: biochemical; details: first step, red click beetle luciferase signal
Protocol: as §1, §2

[4] = Stability of coelenterazines in reporter reagent buffer (T90); details: time for luminescent signal to decay by 10% at 22° C. in reporter reagent buffer; read with IV lysate
[5] = test system: HEK293 cells; assay: Live cell luminescence with PBI-3939; format: cell-based, human; details: cells in culture, 60 μM
Protocol: A. The use of OgLuc variants and PBI-3939 in live cells was examined HEK293 cells were plated in 96-well plates at 15,000 cells/well and grown overnight at 37° C. The following day, the cells were transiently transfected using TRANSIT®-LT1 in 3 replicates with 100 ng of hRL or 9B8 opt in pF4Ag and grown overnight at 37° C. The following day the growth media was removed and replaced with media containing 60 μM VIVIREN™ Live Cell Substrate (Promega Corp.), 60 μM ENDUREN™ Live Cell Substrate (Promega Corp.), or 60 μM PBI-3939 for both hRL and 9B8 opt transfected cells. Non-transfected cells were used as background control. The plate was incubated at 37° C. during the course of one day and periodically measured on a TECAN® GENIOS™ Pro luminometer, i.e., 11 times over the course of 24 hrs.

[6] = test system: HEK293 cells

T2 sequence (Q9GV45 other isoform, or with tags, fused parts or gaps with the stated changes): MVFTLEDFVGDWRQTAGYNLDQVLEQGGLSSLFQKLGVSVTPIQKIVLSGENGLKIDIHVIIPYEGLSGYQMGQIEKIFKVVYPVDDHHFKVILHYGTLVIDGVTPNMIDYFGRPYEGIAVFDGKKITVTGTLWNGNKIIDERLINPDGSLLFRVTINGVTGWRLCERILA
T1 sequence (Q9GV45 other isoform, or with tags, fused parts or gaps with the stated changes): as above

Molecule | Stability (pH 8) (T90 in hrs) [4] [hrs] | Stability (pH 8) (T90 in hrs) [hrs] | also measured
Cc1ccc(C(=O)Nc2ccc(S(=O)(=O)O)c3cc(S(=O)(=O)O)cc(S(=O)(=O)O)c23)cc1NC(=O)c1cccc(NC(=O)Nc2cccc(C(=O)Nc3cc(C(=O)Nc4ccc(S(=O)(=O)O)c5cc(S(=O)(=O)O)cc(S(=O)(=O)O)c45)ccc3C)c2)c1 [Suramin] | – | – | inhibition of OgLuc [1]: inhibitor of OgLuc
coelenterazine-h [reference compound] | 2.1 | – | Ogluc (average luminescence) [2]: 921,440; click beetle (average luminescence) [3]: 5,082,100
Oc1ccc(Cc2nc3c(Cc4ccccc4)nc(-c4ccc(O)cc4)cn3c2O)cc1 [native coelenterazine, coelenterazine] | – | 1.7 | –
O=c1c(Cc2ccco2)nc2c(Cc3ccccc3)[nH]c(-c3ccccc3)cn1-2 [PBI-3939, 8-benzyl-2-(furan-2-ylmethyl)-6-phenylimidazo[1,2-a]pyrazin-3(7H)-one] | – | 4.1 | Ogluc (average luminescence) [2]: 2,996,940; click beetle (average luminescence) [3]: 5,078,547; cell permeability [5]: can permeate cells in culture; biocompatibility in terms of cell viability [6]: comparable biocompatibility to native coelenterazine
O=c1c(Cc2ccccc2)nc2c(Cc3ccccc3)[nH]c(-c3ccccc3)cn1-2 [coelenterazine-hh, bisdeoxycoelenterazine, reference compound] | 2.0 | – | –

Now from value to molecule, other results behind:

Stability (pH 8) (T90 in hrs) [4] [hrs] | Stability (pH 8) (T90 in hrs) [hrs] | Molecule | also measured
– | 2.9 | O=c1c(Cc2cccs2)nc2c(Cc3ccccc3)[nH]c(-c3ccccc3)cn1-2 [PBI-3889, 8-benzyl-6-phenyl-2-(thiophen-2-ylmethyl)imidazo[1,2-a]pyrazin-3(7H)-one] | –
– | 2.8 | Cc1[nH]c(-c2ccccc2)cn2c(=O)c(Cc3ccc(O)cc3)nc1-2 [PBI-3896, 2-(4-hydroxybenzyl)-8-methyl-6-phenylimidazo[1,2-a]pyrazin-3(7H)-one] | –
3.3 | – | O=c1c(Cc2ccco2)nc2c(Cc3ccccc3)[nH]c(-c3ccc(O)cc3)cn1-2 [PBI-3945] | –
3.5 | – | O=c1c(Cc2cccs2)nc2c(Cc3ccccc3)[nH]c(-c3ccc(O)cc3)cn1-2 [PBI-4002] | –
